Data set [1] concerns tracheal smooth muscle of guinea pig. The experiment in a line: Relaxation of CCh-induced constriction of isolated guinea pig tracheal smooth muscle (Experimental Example 1). Particulars: in vitro; for Onset time (min) ± SD / Time for eliminating inhibition effect (min): CCh 3 × 10^−6 mol/L; for EC50: constriction induced by CCh 3 × 10^−6 mol/L, read-out: EC50 (μM) ± SD.
Data set [2] has as its target T1, human recombinant β1 adrenoceptor (Homo sapiens, UniProt P08588).
T1 construct: expressed in transfected cells
Briefly: cAMP accumulation, human recombinant β1 adrenoceptor. The class given is cell-based. As for the experimental part: In order to measure the activity and selectivity of agonists to human β1 and β2 adrenoceptors, the cAMP accumulation of expressed receptors in each recombinant cell line was measured. cAMP was determined by homology radioimmunoassay, that is, cells were washed with PSB buffer solution and suspended in the buffer solution at room temperature to grow to 30000-40000 cells per well. The test compound was diluted with PSB buffer solution containing 0.1% BSA and tested at 11 gradient concentrations ranging from 100 uM to 0.1 pM. For the analysis of β1-adrenoceptor, 10 nM of ICI118551 was added to block the expression of β2-adrenoceptor in HEK293 cells. After the compound was added to the suspended cells, the scintillation plate was incubated at 37° C. for 10 minutes, the reaction was terminated with ice-cold detection buffer solution, and its radioactivity was measured after storage at 4° C. overnight.
The agonistic activity (pEC50 value) was analyzed by regression using S-type dose response model of software package (GraphPad Software, San Diego, Calif.). Selectivity was calculated from the ratio of measured cAMP of β1 and β2 adrenoceptors, which was expressed as sel. β1/β2=(EC50 (β1)/EC50 (β2)).
On the technique in general: Cyclic AMP is a second messenger, typically raised through Gs and lowered through Gi signalling.

Data set [3] addresses T2, human recombinant β2 adrenoceptor (Homo sapiens, UniProt P07550).
T2 construct: expressed in transfected cells
The experiment in a line: cell-based. The conditions noted are these: for EC50: cAMP accumulation. The class given is cell-based.

Data set [4] concerns the target human recombinant M1 receptor (Homo sapiens, UniProt P11229). The experiment in a line: biochemical. The class given is binding. The conditions noted are these: for M1/M2: Mx/My = Ki(y)/Ki(x).
Data set [5] concerns the target human recombinant M2 receptor (Homo sapiens, UniProt P08172). Briefly: biochemical. The class given is binding.
Data set [6] concerns the target human recombinant M3 receptor (Homo sapiens, UniProt P20309). The experiment in a line: biochemical. The class given is binding. Particulars: for M1/M3 / M2/M3: Mx/My = Ki(y)/Ki(x).
Data set [7] relates to guinea pig tracheal smooth muscle (MABA). Briefly: MABA activity: relaxation of CCh pre-constricted guinea pig isolated trachea. Particulars: Cavia porcellus; CCh 3×10^−6 mol/L. As for the experimental part:
(1) The Constriction Effect of Tracheal Smooth Muscle of Guinea Pig Induced by the Example Compounds Antagonizing Carbachol (CCh)
(§1) Preparation of an isolated tracheal smooth muscle specimen of a guinea pig: same as Experiment Example 1.
Administration Method: After the trachea flake were stabilized, carbachol with a final concentration of 3×10^−6 mol/L was added, and administration was started when the pressure value of the trachea flake was increased to a stable platform. The experiments were divided into blank group and each test sample administration group. DMSO solution prepared from K—H solution and 50 μl of each test sample solution were added to each group respectively. The test sample administration group was added with 10^−9, 0.3×10^−8, 10^−8, 0.3×10^−7, 10^−7, 0.3×10^−6 and 10^−6 mol/L of test compound and control substance at cumulative concentration. The blank group was added with corresponding diluted DMSO solution. Medlab was used to record the relaxation degree of smooth muscle of the trachea flake. Finally, isoproterenol with a final concentration of 10^−5 mol/L was added as 100% relaxation.

In data set [8] the test system is M receptor of guinea pig tracheal smooth muscle. Briefly: MA activity: guinea pig isolated trachea, propranolol blocks β receptor, CCh constriction. Particulars: Cavia porcellus; propranolol 10^−5 mol/L, CCh 3×10^−6 mol/L. Here is the method:
(2) Blocking Effect of Example Compounds on M Receptor of Guinea Pig Tracheal Smooth Muscle
as §1
Administration method: After trachea flake was stabilized, propranolol hydrochloride solution with a final concentration of 10^−5 mol/L was added to block β receptor for 10 min, carbachol with a final concentration of 3×10^−6 mol/L was added (observing M receptor antagonism of compound after propranolol blocks β receptor), and administration was started when the pressure value of the trachea flake was increased to a stable platform. The experiments were divided into a blank group, a propranolol+blank group, each test sample administration group and a propranolol+each test sample administration group. DMSO solution prepared by K—H solution and 50 μl of test sample solution were added to each group of the blank group and each test sample administration group respectively. The propranolol+blank group and propranolol+each test sample administration group were added with 50 μl propranolol solution for 10 min respectively, and then added with DMSO solution prepared from K—H solution and 50 μl of test sample solution. The test sample administration group was added with the compounds to be tested with final concentrations of 10^−9, 0.3×10^−8, 10^−8, 0.3×10^−7, 10^−7, 0.3×10^−6 and 10^−6 mol/L at cumulative concentration, and the blank group was added with corresponding diluted DMSO solution. The propranolol+each test sample administration group was added with propranolol for 10 min, and then added with the compounds to be tested with final concentrations of 10^−9, 0.3×10^−8, 10^−8, 0.3×10^−7, 10^−7, 0.3×10^−6 and 10^−6 mol/L at cumulative concentration. After the propranolol+blank group was added with propranolol for 10 min, corresponding diluted DMSO solution was added. Medlab was used to record the relaxation degree of tracheal smooth muscle, finally sodium nitroprusside with a final concentration of […] was added as 100% relaxation.

Data set [9] relates to β2 receptor in guinea pig tracheal smooth muscle. The experiment in a line: BA activity: guinea pig isolated trachea pre-treated with histamine. The conditions noted are these: Cavia porcellus, read-out: BA (EC50, nM). As for the experimental part: (3) The Antagonism of the Example Compounds on β2 Receptor in Guinea Pig Tracheal Smooth Muscle
as §1
Administration Method: After the trachea flake was stabilized, histamine solution with a final concentration of 3×10^−5 mol/L was added for 10 min, carbachol with a final concentration of 3×10^−6 mol/L was added (observing β receptor antagonism), and administration was started when the pressure value of the trachea flake was increased to a stable platform. The experiments were divided into a blank group, a histamine+blank group, each test sample administration group and a histamine+each test sample administration group. DMSO solution prepared by K—H solution and 50 μl of test sample solution were added to each group of the blank group and each test sample administration group respectively. The histamine+blank group and histamine+each test sample administration group were added with 50 μl histamine solution for 10 min respectively, then added with DMSO solution prepared by K—H solution and 50 μl test sample solution. The test sample administration group was added with the compounds to be tested with final concentrations of 10^−9, 0.3×10^−8, 10^−8, 0.3×10^−7, 10^−7, 0.3×10^−6 and 10^−6 mol/L at cumulative concentration, and the blank group was added with corresponding diluted DMSO solution. The histamine+each test sample administration group was added with histamine for 10 min, and then added with the test compounds with final concentrations of 10^−9, 0.3×10^−8, 10^−8, 0.3×10^−7, 10^−7, 0.3×10^−6 and 10^−6 mol/L at cumulative concentration. After the histamine+blank group was added with histamine for 10 m, corresponding diluted DMSO solution was added. Medlab was used to record the relaxation degree of smooth muscle of the trachea flake. Finally theophylline with a final concentration of 2×10^−4 mol/L was added as 100% relaxation.

Data set [10] deals with heart rate of Beagle dogs. Briefly: Heart rate changes after iv administration in Beagle dogs. The class given is in vivo, Beagle dog. As for the experimental part:
Beagle dogs were randomly divided into two groups, half male and half female, and were intravenously injected (iv) with 7.5% ethanol solution of compounds of the invention and control compound. Each compound was set up in two dosage groups of 0.01 mg/kg and 0.10 mg/kg.

Data set [11] is described as follows: Liver microsome metabolic stability in vitro (human). The conditions noted are these: Human liver microsomes. As for the experimental part:
(§2) The area ratio of the 0 min sample was taken as 100%, and the remaining percentage of the compound after incubation at different times was obtained at each time point by comparison with the sample. With the natural logarithm of this percentage on the ordinate and time on the abscissa, a scatter plot was drawn to simulate a straight line with a negative slope of k. The parameters were calculated according to the formula.
(§3) Liver weight indicates the liver weight (g) per kilogram of body weight, and P450 indicates the amount (mg) of P450 enzyme per gram of liver.
(In general: Liver microsomes are a subcellular fraction often used to study metabolism.)

A short description of data set [12]: Liver microsome metabolic stability in vitro (SD rat). Particulars: SD rat liver microsomes. Here is the method:
as §2, §3

Data set [13] can be described thus: Liver microsome metabolic stability in vitro (Beagle dog). The conditions noted are these: Beagle dog liver microsomes. As for the experimental part: as §2, §3
Data set [14] can be described thus: Lung homogenate stability in vitro (human). The class given is in vitro ADME. The conditions noted are these: 8 h, 37° C.
Data set [15] in a line: Lung homogenate stability in vitro (dog). The class given is in vitro ADME, Beagle dog. The conditions noted are these: 8 h, 37° C. As for the experimental part:
The compounds of the invention were respectively incubated with the lung homogenate of Beagle dogs for 8 hours in a water bath at 37° C., and sample was analysed by LC-MS/MS when the reaction was terminated.

The source of these data is patent US11447485B2, “Class of bifunctional compounds with quanternary ammonium salt structure” (Beijing Showby Pharmaceutical Co., Ltd., priority 2016, dated 2022).

Structures are written as SMILES. Read-outs that look alike come from different tables or passages of the source.

Sequence of human recombinant M3 receptor (P20309 whole entry): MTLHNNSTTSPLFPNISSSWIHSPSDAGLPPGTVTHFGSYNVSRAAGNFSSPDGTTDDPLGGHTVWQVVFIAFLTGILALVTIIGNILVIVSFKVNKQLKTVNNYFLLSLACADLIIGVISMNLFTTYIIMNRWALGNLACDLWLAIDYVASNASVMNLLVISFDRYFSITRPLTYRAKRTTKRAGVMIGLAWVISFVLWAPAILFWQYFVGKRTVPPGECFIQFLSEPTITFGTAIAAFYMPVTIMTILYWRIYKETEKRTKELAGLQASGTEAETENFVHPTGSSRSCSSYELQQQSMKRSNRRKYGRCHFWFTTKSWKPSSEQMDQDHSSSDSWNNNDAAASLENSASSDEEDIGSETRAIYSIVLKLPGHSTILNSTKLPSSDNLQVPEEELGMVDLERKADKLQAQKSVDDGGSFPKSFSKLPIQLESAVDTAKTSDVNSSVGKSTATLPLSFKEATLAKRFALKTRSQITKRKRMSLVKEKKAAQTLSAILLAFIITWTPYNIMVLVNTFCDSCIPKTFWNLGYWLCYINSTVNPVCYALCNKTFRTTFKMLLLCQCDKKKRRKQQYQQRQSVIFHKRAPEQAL
T1 sequence (P08588 whole entry): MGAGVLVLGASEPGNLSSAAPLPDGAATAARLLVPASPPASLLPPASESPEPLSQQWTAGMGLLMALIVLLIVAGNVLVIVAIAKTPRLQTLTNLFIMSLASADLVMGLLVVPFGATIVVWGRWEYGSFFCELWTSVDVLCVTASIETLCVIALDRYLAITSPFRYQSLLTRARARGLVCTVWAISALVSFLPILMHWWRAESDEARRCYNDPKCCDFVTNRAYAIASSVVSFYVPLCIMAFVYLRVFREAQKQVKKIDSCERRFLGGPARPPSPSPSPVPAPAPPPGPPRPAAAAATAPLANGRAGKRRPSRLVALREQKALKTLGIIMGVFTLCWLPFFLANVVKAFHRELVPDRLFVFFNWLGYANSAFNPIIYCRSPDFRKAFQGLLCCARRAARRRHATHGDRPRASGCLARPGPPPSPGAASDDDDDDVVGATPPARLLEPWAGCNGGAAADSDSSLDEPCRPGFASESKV
Sequence of human recombinant M1 receptor (P11229 whole entry): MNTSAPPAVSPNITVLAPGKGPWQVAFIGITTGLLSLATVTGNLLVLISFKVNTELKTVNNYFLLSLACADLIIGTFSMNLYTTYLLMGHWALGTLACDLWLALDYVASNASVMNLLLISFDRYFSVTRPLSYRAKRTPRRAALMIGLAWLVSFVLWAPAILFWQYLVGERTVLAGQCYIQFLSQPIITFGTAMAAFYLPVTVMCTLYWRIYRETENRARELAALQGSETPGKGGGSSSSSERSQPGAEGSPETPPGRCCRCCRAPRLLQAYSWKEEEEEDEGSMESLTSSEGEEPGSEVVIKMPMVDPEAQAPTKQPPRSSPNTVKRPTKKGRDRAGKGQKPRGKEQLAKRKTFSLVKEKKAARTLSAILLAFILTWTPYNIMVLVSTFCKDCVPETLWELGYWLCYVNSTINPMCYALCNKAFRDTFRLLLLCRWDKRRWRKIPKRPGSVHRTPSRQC
Sequence of human recombinant M2 receptor (P08172 whole entry): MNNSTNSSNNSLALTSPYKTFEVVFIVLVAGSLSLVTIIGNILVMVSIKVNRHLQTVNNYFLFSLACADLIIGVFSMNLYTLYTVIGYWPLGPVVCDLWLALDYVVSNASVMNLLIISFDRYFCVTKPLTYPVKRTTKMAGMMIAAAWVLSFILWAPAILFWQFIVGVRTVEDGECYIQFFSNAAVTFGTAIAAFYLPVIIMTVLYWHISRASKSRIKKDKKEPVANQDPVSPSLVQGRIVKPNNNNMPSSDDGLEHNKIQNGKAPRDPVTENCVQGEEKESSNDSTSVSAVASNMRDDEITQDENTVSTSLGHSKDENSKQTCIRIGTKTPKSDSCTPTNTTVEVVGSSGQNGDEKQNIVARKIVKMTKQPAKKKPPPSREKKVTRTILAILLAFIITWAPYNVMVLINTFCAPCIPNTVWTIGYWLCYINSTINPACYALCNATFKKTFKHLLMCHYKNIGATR
T2 sequence (P07550 whole entry): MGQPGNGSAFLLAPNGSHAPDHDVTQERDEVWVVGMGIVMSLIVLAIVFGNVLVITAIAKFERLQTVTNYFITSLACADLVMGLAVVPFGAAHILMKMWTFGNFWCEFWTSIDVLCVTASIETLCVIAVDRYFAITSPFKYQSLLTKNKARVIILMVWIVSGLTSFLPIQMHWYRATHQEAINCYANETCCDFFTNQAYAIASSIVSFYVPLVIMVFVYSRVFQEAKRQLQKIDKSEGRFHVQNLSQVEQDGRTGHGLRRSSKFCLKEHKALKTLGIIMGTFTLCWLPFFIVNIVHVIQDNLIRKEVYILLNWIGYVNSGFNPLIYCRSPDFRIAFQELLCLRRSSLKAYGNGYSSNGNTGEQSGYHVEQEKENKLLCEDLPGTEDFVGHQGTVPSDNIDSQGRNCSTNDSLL

One may read the EC50 as the midpoint of the concentration-response curve. Take `OCc1cc([C@@H](O)CNCCC[N+]23CCC(CC2)[C@@H](OC[C@@](O)(c2ccccc2)C2CCCC2)C3)ccc1O` [Compound 1, (R)-(−)-3-[(R)-2-hydroxy-2-cyclopentyl-2-phenyl]ethoxy-1-{3-[(R)-2-(3-hydroxymethyl-4-hydroxy)phenyl-2-hydroxyethylamino]propyl}-1-azabicyclo[2,2,2]octylonium bromide]: in data set [1], the “Onset time (min) ± SD” value is 6.82 ± 0.30 min and the “Time for eliminating inhibition effect (min)” value was “more than 300 min”. In data set [1] (Cavia porcellus), the EC50 stood at 0.767 ± 0.18 µM. In addition, in data set [2], the EC50 is 197 ± 87 nM. Also, in data set [3], the “sel (β1/β2)” value was found to be 15.4 and the EC50 is 12.8 ± 4.2 nM. In data set [4], the Ki turned out to be 0.733 ± 0.32 nM and the M1/M2 came out at 1.3206. Besides, the Ki in [5] is 0.968 ± 0.15 nM. Besides, in data set [6], the Ki stood at 0.561 ± 0.22 nM, the M1/M3 was determined as 0.7653 and the M2/M3 is reported as 0.5795.
Consider `OCc1cc([C@@H](O)CNCCCC[N+]23CCC(CC2)[C@@H](OC[C@@](O)(c2ccccc2)C2CCCC2)C3)ccc1O` [Compound 3, (R)-(−)-3-[(R)-2-hydroxy-2-cyclopentyl-2-phenyl]ethoxy-1-{4-[(R)-2-(3-hydroxymethyl-4-hydroxy)phenyl-2-hydroxyethylamino]butyl}-1-azabicyclo[2,2,2]octylonium bromide], for which, in data set [1], the “Onset time (min) ± SD” value stood at 5.38 ± 0.68 min and the “Time for eliminating inhibition effect (min)” value is reported as “more than 300 min”. Moreover, in data set [1] (Cavia porcellus), the EC50 came to 0.355 ± 0.1 µM. The EC50 in data set [2] is 160 ± 72 nM. Besides, in data set [3], the “sel (β1/β2)” value was 15.6 and the EC50 is 10.3 ± 2.4 nM. Also, in [4], the Ki was 0.767 ± 0.16 nM and the M1/M2 worked out at 1.2229. Moreover, in data set [5], the Ki is 0.938 ± 0.4 nM. In data set [6], the Ki was determined as 0.451 ± 0.18 nM, the M1/M3 is reported as 0.5880 and the M2/M3 is on record as 0.4808.
As to `O=CNc1cc([C@@H](O)CNCc2c(Cl)cc(OCCC[N+]34CCC(CC3)[C@@H](OC[C@](O)(c3ccccc3)C3CCCC3)C4)cc2Cl)ccc1O.[Br-]` [Compound 59, (R)-(−)-3-[(R)-2-hydroxy-2-cyclopentyl-2-phenyl]ethoxy-1-{3-[(3,5-dichloro-4-(1-{(R)-[2-hydroxy-2-(3-formamido-4-hydroxy)phenyl]ethylamino}methyl)phenoxy)propyl}-1-azabicyclo[2,2,2]octylonium bromide], the EC50 came to 0.0165 ± 0.0075 µM in data set [1]; 83 ± 31 nM in [2] (cAMP accumulation, 10 nM ICI118551 added, HEK293 cells, read-out: EC50 (β1)); 0.32 ± 0.12 nM in data set [3]. Further, the Ki in data set [4] (3H-QNB […], 25° C., 5 h, read-out: hM1Ki) turned out to be 0.283 ± 0.018 nM; in data set [5] (3H-QNB 1.81 nmol/L, 25° C., 5 h, read-out: hM2Ki), 2 ± 0.89 nM; in [6] (3H-QNB […], 25° C., 5 h, read-out: hM3Ki), 0.131 ± 0.022 nM.
For `O=CNc1cc([C@@H](O)CNCc2c(Cl)cc(OCCC[N+]34CCC(CC3)[C@@H](OC[C@](O)(c3ccccc3)C3CCCC3)C4)cc2Cl)ccc1O.[Br-]` [Compound 59], in data set [1], the “Onset time (min) ± SD” value came to 6.53 ± 0.66 min and the “Time for eliminating inhibition effect (min)” value is “more than 300 min”. The “sel (β1/β2)” value in data set [3] was 213.4. Besides, the M1/M2 in data set [4] is recorded as 7.0601. For the same molecule, in data set [6], the M1/M3 came out at 0.4629 and the M2/M3 is given as 0.0656.
For `O=c1ccc2c([C@@H](O)CNCCCOc3ccc(OCCC[N+]45CCC(CC4)[C@@H](OC[C@@](O)(c4ccccc4)C4CCCC4)C5)cc3)ccc(O)c2[nH]1.[Br-]` [Compound 131], the EC50 in data set [7] turned out to be 4 ± 1 nM; in [8], 30.2 ± 8.1 nM; in data set [9], 9.2 ± 1.6 nM. Moreover, the “0.5-4 h area increase under heart rate curve (%)” value in [10] (0.01 mg/kg iv) amounted to 10%; in data set [10] (0.10 mg/kg iv), 2.9%. Also, the “liver extraction rate (ERh)” value in [11] turned out to be 0.99; in data set [12], 0.93; in data set [13], 0.93. Further, the “Residual rate after incubation of human lung homogenate (%)” value in data set [14] turned out to be 90%. The “Residual rate after incubation of dog lung homogenate (%)” value in [15] stood at 94%.
